# “And” between values parts separate entries of the source, which are not always exact repeats. Equal values may be shown once.
# Key:
# topoisomerase i = target: T1, topoisomerase i (Homo sapiens, UniProt P11387); assay: Persistence of topoisomerase I-mediated DNA cleavage after addition of 0.6 M NaCl; type: biochemical; conditions: for PERSISTENCE (%) of DNA cleavage on selected sites: drug 10 μm, 20 minutes incubation, then sodium chloride (0.6 M), examined after about 10 minutes; for Reversibility / persistence of the DNA cleavages (in words): after sodium chloride (0.6 M), about 10 minutes
# T1 sequence (P11387 1-765): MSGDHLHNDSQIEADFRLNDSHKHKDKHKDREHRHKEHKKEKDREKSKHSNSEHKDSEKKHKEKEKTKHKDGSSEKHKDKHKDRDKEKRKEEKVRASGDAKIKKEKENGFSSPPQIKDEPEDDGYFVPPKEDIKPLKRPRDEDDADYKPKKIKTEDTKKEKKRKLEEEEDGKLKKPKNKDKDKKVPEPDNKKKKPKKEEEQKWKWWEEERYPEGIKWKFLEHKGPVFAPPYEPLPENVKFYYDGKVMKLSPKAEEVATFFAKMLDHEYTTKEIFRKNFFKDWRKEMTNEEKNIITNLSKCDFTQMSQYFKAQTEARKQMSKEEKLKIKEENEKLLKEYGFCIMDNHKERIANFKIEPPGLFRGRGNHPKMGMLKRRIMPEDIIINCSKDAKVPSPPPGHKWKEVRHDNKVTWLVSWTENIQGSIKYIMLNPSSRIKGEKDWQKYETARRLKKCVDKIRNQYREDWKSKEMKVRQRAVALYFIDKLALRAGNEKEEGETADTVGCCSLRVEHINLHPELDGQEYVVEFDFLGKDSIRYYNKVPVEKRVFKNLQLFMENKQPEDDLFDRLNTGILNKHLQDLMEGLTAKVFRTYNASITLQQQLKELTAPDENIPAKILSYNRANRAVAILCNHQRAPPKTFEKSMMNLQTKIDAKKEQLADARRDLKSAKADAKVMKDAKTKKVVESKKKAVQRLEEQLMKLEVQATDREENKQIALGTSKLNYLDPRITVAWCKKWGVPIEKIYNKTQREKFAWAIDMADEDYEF
# Procedure: An important drawback of conventional camptothecins is the reversibility of the their bond in the ternary complex (drug-DNA-enzyme).
# After 20 minutes of incubation of the drug in the reaction mixture containing labelled DNA and the purified enzyme, sodium chloride (0.6 M) was added with the scope of assisting the dissociation of the ternary complex.
# lung carcinoma NCI H460 = assay: Antitumoral activity in nude mice implanted s.c. with NCI H460 tumour fragments (Table 1); conditions: for Efficacy (TVI %): evaluated 5–10 days after the last treatment
# Procedure: For the in vivo studies, the solubilization was carried out in 10% DMSO in bidistilled water, being impossible the solubilization in saline, and the administration for the oral route was carried out at a volume of 10 ml/kg.
# Atimic nu/nu Swiss mice (Charles River, Calco, Italia), ageing 10–12 weeks were used. The animals were maintained in laminar flow rooms, according to the guidelines of the United Kingdom Co-ordination Committee Cancer Research. Experimental protocols were approved by the Ethical Committee for animal experimentation of Istituto Nazionale per lo Studio e Cura dei Tumori.
# Tumour fragments of about 2×2×2 mm coming from mice to which were inoculated s.c. 10^6 cells NCI H460/topo, were implanted s.c. bilaterally in groups of 5 mice each.
# Twice a week, using a Vernier caliper, the width, minimum diameter (l), length and maximum diameter (L) of the tumors were measured, in mm. The tumour volume (mm^3) was calculated according to the formula I^2×L/2. Efficacy of the molecule was evaluated as TVI percent of the treated group versus the control group according to the formula TVI%=100−(T/C×100), wherein T is the mean value of the tumour volume of the treated group and C of control one.
# H460 = NSCLC = assay: Antitumor activity on tumor models: H460; type: in vivo, mice
# Source text: (§1) This broad spectrum of anticancer activity was confirmed in mice transplanted with human tumor xenografts, including NSCLC (H460, A549), prostate ca. (JCA-1), glioblastoma (GBM/7), gastric ca. (MKN28), osteosarcoma (U2OS), ovarian ca. (A2780/Dx, A2780/DDP) and colon (HT29, CoBA) carcinomas as well as in murine lung cancer (M109) and leukaemia model (L1210).
# HT29 colon ca = assay: Antitumor activity on tumor models: HT29; type: in vivo, mice
# Source text: as §1
# CoBA colon ca = assay: Antitumor activity on tumor models: CoBA; type: in vivo, mice
# Source text: as §1
# GBM/7 glioblastoma = assay: Antitumor activity on tumor models: GBM/7; type: in vivo, mice
# Source text: as §1
# U87 glioblastoma = assay: Antitumor activity on tumor models: U87; type: in vivo, mice
# A2780 ovarian ca = assay: Antitumor activity on tumor models: A2780; type: in vivo, mice
# Source text: as §1
# A2780/Dx ovarian ca = assay: Antitumor activity on tumor models: A2780/Dx; type: in vivo, mice; conditions: for TVI % / no evidence of tumor at the end of the treatment lasting for about 10 days from the last administration: A2780/Dx
# Source text: as §1
# The high cytotoxic potency of the compounds of the present invention, herein represented in an exemplary way with one of the preferrred compounds, CPT 184, is also reflected by the potent antitumor activity. […] Moreover, the compounds of the present invention, in particular the CPT 184, were able to induce 100% CR in the A2780/DX tumor characterized by a MDR-phenotype.
# A2780/DDP ovarian ca = assay: Antitumor activity on tumor models: A2780/DDP; type: in vivo, mice
# Source text: as §1
# IGROV-1 ovarian ca = assay: Antitumor activity on tumor models: IGROV-1; type: in vivo, mice
# JCA-1 prostate ca = assay: Antitumor activity on tumor models: JCA-1; type: in vivo, mice
# Source text: as §1
# DU145 prostate ca = assay: Antitumor activity on tumor models: DU145; type: in vivo, mice
# L1210 = murine leukemia = assay: Antitumor activity on tumor models: L1210 leukemia, increase in life span; type: in vivo, mice
# Source text: as §1
# [1] = cited from earlier work; for crossing of the hematoencephalic barrier (in words): in vivo
compound,measurement,setting,value
"CC[C@@]1(O)C(=O)OCc2c1cc1n(c2=O)Cc2c-1nc1ccccc1c2C=NO [CPT 181, 7-hydroxyiminomethylcamptothecin, reference compound]",PERSISTENCE (%) of DNA cleavage on selected sites,topoisomerase i,28%
same,Toxicity Body weight loss (%),"lung carcinoma NCI H460; 15 mg/kg p.o., q4d × 4",0%
same,Toxicity Lethality,"lung carcinoma NCI H460; 15 mg/kg p.o., q4d × 4",0/4
same,Efficacy (TVI %),"lung carcinoma NCI H460; 15 mg/kg p.o., q4d × 4",40%
same,Toxicity Body weight loss (%),"lung carcinoma NCI H460; 25 mg/kg p.o., q4d × 4",0%
same,Toxicity Lethality,"lung carcinoma NCI H460; 25 mg/kg p.o., q4d × 4",0/4
same,Efficacy (TVI %),"lung carcinoma NCI H460; 25 mg/kg p.o., q4d × 4",70%
"CC[C@@]1(O)C(=O)OCc2c1cc1n(c2=O)Cc2c-1nc1ccccc1c2C=NOC(C)(C)C [CPT 184, 7-T-Butoxyiminomethylcamptothecin]",Reversibility / persistence of the DNA cleavages (in words),topoisomerase i,marked persistence
same,PERSISTENCE (%) of DNA cleavage on selected sites,topoisomerase i,72%
same,TVI %,"H460 = NSCLC; H460, 2 mg/kg",99%
same,no evidence of tumor at the end of the treatment lasting for about 10 days from the last administration,"H460 = NSCLC; H460, 2 mg/kg",(5/8*)
same,TVI %,"HT29 colon ca; HT29, 2 mg/kg",92%
same,TVI %,CoBA colon ca; 2 mg/kg,84%
same,TVI %,CoBA colon ca; 3 mg/kg,87%
same,TVI %,"GBM/7 glioblastoma; GBM/7, 2 mg/kg",97%
same,no evidence of tumor at the end of the treatment lasting for about 10 days from the last administration,"GBM/7 glioblastoma; GBM/7, 2 mg/kg",(3/10*)
same,TVI %,"GBM/7 glioblastoma; GBM/7, 3 mg/kg",98%
same,no evidence of tumor at the end of the treatment lasting for about 10 days from the last administration,"GBM/7 glioblastoma; GBM/7, 3 mg/kg",(2/8*)
same,TVI %,"U87 glioblastoma; U87, 2 mg/kg",80%
same,TVI %,"U87 glioblastoma; U87, 3 mg/kg",87%
same,TVI %,"A2780 ovarian ca; A2780, 2 mg/kg",100%
same,no evidence of tumor at the end of the treatment lasting for about 10 days from the last administration,"A2780 ovarian ca; A2780, 2 mg/kg",(1/8*)
same,CR (complete regressions) induced,A2780/Dx ovarian ca; A2780/DX tumor characterized by a MDR-phenotype,100%
same,TVI %,A2780/Dx ovarian ca; 2 mg/kg,92%
same,no evidence of tumor at the end of the treatment lasting for about 10 days from the last administration,A2780/Dx ovarian ca; 2 mg/kg,(1/8*)
same,TVI %,A2780/Dx ovarian ca; 3 mg/kg,100%
same,no evidence of tumor at the end of the treatment lasting for about 10 days from the last administration,A2780/Dx ovarian ca; 3 mg/kg,(8/8*)
same,TVI %,A2780/DDP ovarian ca; 2 mg/kg,77%
same,TVI %,A2780/DDP ovarian ca; 3 mg/kg,90%
same,TVI %,"IGROV-1 ovarian ca; IGROV-1, 2 mg/kg",93%
same,TVI %,"IGROV-1 ovarian ca; IGROV-1, 3 mg/kg",96%
same,TVI %,"JCA-1 prostate ca; JCA-1, 2 mg/kg",98%
same,no evidence of tumor at the end of the treatment lasting for about 10 days from the last administration,"JCA-1 prostate ca; JCA-1, 2 mg/kg",(5/8*)
same,TVI %,"DU145 prostate ca; DU145, 2 mg/kg",95%
same,ILS % = percent increase in life span,"L1210 = murine leukemia; L1210, 2 mg/kg",> 400%
same,cured mice alive 120 d from leukemia injection,"L1210 = murine leukemia; L1210, 2 mg/kg",*** (>80% of cured mice alive 120 d from leukemia injection.)
same,Toxicity Body weight loss (%),"lung carcinoma NCI H460; 2 mg/kg p.o., q4d × 4",0%
same,Toxicity Lethality,"lung carcinoma NCI H460; 2 mg/kg p.o., q4d × 4",0/5
same,Efficacy (TVI %),"lung carcinoma NCI H460; 2 mg/kg p.o., q4d × 4",100%
same,Toxicity Body weight loss (%),"lung carcinoma NCI H460; 5 mg/kg p.o., q10d × 6",9%
same,Toxicity Lethality,"lung carcinoma NCI H460; 5 mg/kg p.o., q10d × 6",0/4
same,Efficacy (TVI %),"lung carcinoma NCI H460; 5 mg/kg p.o., q10d × 6",99%
"CC[C@@]1(O)C(=O)OCc2c1cc1n(c2=O)Cc2cc3c(CN(C)C)c(O)ccc3nc2-1 [TPT, Topotecan, reference compound]",Reversibility / persistence of the DNA cleavages (in words),topoisomerase i,almost complete reversibility of the cleavages
same,PERSISTENCE (%) of DNA cleavage on selected sites,topoisomerase i,16%
same,TVI %,"H460 = NSCLC; H460, 15 mg/kg",98%
same,TVI %,"HT29 colon ca; HT29, 15 mg/kg",65%
same,TVI %,CoBA colon ca; 15 mg/kg,85%
same,TVI %,"GBM/7 glioblastoma; GBM/7, 15 mg/kg",96%
same,no evidence of tumor at the end of the treatment lasting for about 10 days from the last administration,"GBM/7 glioblastoma; GBM/7, 15 mg/kg",(1/10*)
same,TVI %,"U87 glioblastoma; U87, 15 mg/kg",82%
same,TVI %,"A2780 ovarian ca; A2780, 15 mg/kg",96%
same,TVI %,A2780/Dx ovarian ca; 15 mg/kg,92%
same,no evidence of tumor at the end of the treatment lasting for about 10 days from the last administration,A2780/Dx ovarian ca; 15 mg/kg,(2/10*)
same,TVI %,A2780/DDP ovarian ca; 15 mg/kg,92%
same,TVI %,"IGROV-1 ovarian ca; IGROV-1, 15 mg/kg",89%
same,TVI %,"JCA-1 prostate ca; JCA-1, 15 mg/kg",95%
same,TVI %,"DU145 prostate ca; DU145, 15 mg/kg",77%
same,ILS % = percent increase in life span,"L1210 = murine leukemia; L1210, 15 mg/kg",39%
same,in the cerebrospinal fluid with respect to plasma,[1]; 10 min after infusion,30%
same,lactone form hydrolysed to open ring,[1]; 30 min after infusion,50%
same,crossing of the hematoencephalic barrier (in words),[1],crosses hematoencephalic barrier
same,Toxicity Lethality,"lung carcinoma NCI H460; 10 mg/kg p.o., q4d × 4",0/5
same,Efficacy (TVI %),"lung carcinoma NCI H460; 10 mg/kg p.o., q4d × 4",64%
same,Toxicity Lethality,"lung carcinoma NCI H460; 15 mg/kg p.o., q4d × 4",0/4 and 0/5
same,Efficacy (TVI %),"lung carcinoma NCI H460; 15 mg/kg p.o., q4d × 4",94% and 89%
CC[C@@]1(O)C(=O)OCc2c1cc1n(c2=O)Cc2cc3ccccc3nc2-1 [Camptothecin],Reversibility / persistence of the DNA cleavages (in words),topoisomerase i,almost complete reversibility of the cleavages
same,PERSISTENCE (%) of DNA cleavage on selected sites,topoisomerase i,16%
same,crossing of the hematoencephalic barrier (in words),[1],does not cross hematoencephalic barrier in significant amount
"CC[C@@]1(O)C(=O)OCc2c1cc1n(c2=O)Cc2c-1nc1ccccc1c2C=NOCc1ccccc1 [CPT 172, 7-Benzyloxyiminomethylcamptothecin]",Reversibility / persistence of the DNA cleavages (in words),topoisomerase i,marked persistence
same,PERSISTENCE (%) of DNA cleavage on selected sites,topoisomerase i,80%
same,TVI %,"H460 = NSCLC; H460, 25 mg/kg",97%
same,TVI %,"HT29 colon ca; HT29, 25 mg/kg",88%
same,TVI %,CoBA colon ca; 20 mg/kg,84%
same,TVI %,CoBA colon ca; 25 mg/kg,93%
same,TVI %,"GBM/7 glioblastoma; GBM/7, 20 mg/kg",93%
same,no evidence of tumor at the end of the treatment lasting for about 10 days from the last administration,"GBM/7 glioblastoma; GBM/7, 20 mg/kg",(3/11*)
same,TVI %,"GBM/7 glioblastoma; GBM/7, 25 mg/kg",98%
same,no evidence of tumor at the end of the treatment lasting for about 10 days from the last administration,"GBM/7 glioblastoma; GBM/7, 25 mg/kg",(9/12*)
same,TVI %,"JCA-1 prostate ca; JCA-1, 20 mg/kg",98%
same,ILS % = percent increase in life span,"L1210 = murine leukemia; L1210, 25 mg/kg",> 400%
same,Toxicity Body weight loss (%),"lung carcinoma NCI H460; 2 mg/kg p.o., qd × 5 × 10w",0%
same,Toxicity Lethality,"lung carcinoma NCI H460; 2 mg/kg p.o., qd × 5 × 10w",0/3
same,Efficacy (TVI %),"lung carcinoma NCI H460; 2 mg/kg p.o., qd × 5 × 10w",90%
same,Efficacy (TVI %),"lung carcinoma NCI H460; 8 mg/kg p.o., q4d × 4",77%
same,Efficacy (TVI %),"lung carcinoma NCI H460; 16 mg/kg p.o., q4d × 4",88%
same,Toxicity Body weight loss (%),"lung carcinoma NCI H460; 24 mg/kg p.o., q4d × 4",6%
same,Toxicity Lethality,"lung carcinoma NCI H460; 24 mg/kg p.o., q4d × 4",0/4
same,Efficacy (TVI %),"lung carcinoma NCI H460; 24 mg/kg p.o., q4d × 4",97%

# Source: US7105492B2, “Camptothecin derivatives having antitumor activity” (priority 1999, dated 2006)
